Measured values reported in ChEMBL document CHEMBL5649169 (ChemMedChem, 2018).

What was measured:
[1] = target: Small ribosomal subunit protein uS12 (Homo sapiens) (UniProt P62266)
Fascin (Homo sapiens) = Fascin (Homo sapiens) (UniProt Q16658)
[2] = target: Heat shock protein HSP 90-beta (Homo sapiens) (UniProt P08238)
[3] = target: NADH dehydrogenase [ubiquinone] iron-sulfur protein 3, mitochondrial (Homo sapiens) (UniProt O75489)
[4] = target: Protein SDA1 homolog (Homo sapiens) (UniProt Q9NVU7)
[5] = target: Small ribosomal subunit protein eS17 (Homo sapiens) (UniProt P08708)
[6] = target: DNA replication licensing factor MCM2 (Homo sapiens) (UniProt P49736)
Plectin (Homo sapiens) = Plectin (Homo sapiens) (UniProt Q15149)
[7] = target: Cytochrome b-c1 complex subunit 1, mitochondrial (Homo sapiens) (UniProt P31930)
[8] = target: Lysosome-associated membrane glycoprotein 2 (Homo sapiens) (UniProt P13473)
[9] = target: Transportin-3 (Homo sapiens) (UniProt Q9Y5L0)
[10] = target: Activin receptor type-1B (Homo sapiens) (UniProt P36896)
[11] = target: DnaJ homolog subfamily A member 3, mitochondrial (Homo sapiens) (UniProt Q96EY1)
[12] = target: Small ribosomal subunit protein uS8 (Homo sapiens) (UniProt P62244)
[13] = target: Lysine--tRNA ligase (Homo sapiens) (UniProt Q15046)
[14] = target: Serine/threonine-protein kinase SIK3 (Homo sapiens) (UniProt Q9Y2K2)
[15] = target: Proto-oncogene tyrosine-protein kinase Src (Homo sapiens) (UniProt P12931)
[16] = target: Elongation factor 1-delta (Homo sapiens) (UniProt P29692)
[17] = target: Rho-associated protein kinase 2 (Homo sapiens) (UniProt O75116)
[18] = target: Leucine--tRNA ligase, cytoplasmic (Homo sapiens) (UniProt Q9P2J5)
[19] = target: FACT complex subunit SSRP1 (Homo sapiens) (UniProt Q08945)
[20] = target: Asparagine--tRNA ligase, cytoplasmic (Homo sapiens) (UniProt O43776)
Malectin (Homo sapiens) = Malectin (Homo sapiens) (UniProt Q14165)
[21] = target: Mitogen-activated protein kinase 3 (Homo sapiens) (UniProt P27361)
[22] = target: THUMP domain-containing protein 1 (Homo sapiens) (UniProt Q9NXG2)
[23] = target: WD repeat-containing protein 5 (Homo sapiens) (UniProt P61964)
[24] = target: Heterogeneous nuclear ribonucleoproteins C1/C2 (Homo sapiens) (UniProt P07910)
[25] = target: Fructosamine-3-kinase (Homo sapiens) (UniProt Q9H479)
[26] = target: Oligosaccharyltransferase complex subunit OSTC (Homo sapiens) (UniProt Q9NRP0)
[27] = target: Coatomer subunit beta' (Homo sapiens) (UniProt P35606)
[28] = target: Staphylococcal nuclease domain-containing protein 1 (Homo sapiens) (UniProt Q7KZF4)
[29] = target: Junction plakoglobin (Homo sapiens) (UniProt P14923)
[30] = target: Large ribosomal subunit protein eL36 (Homo sapiens) (UniProt Q9Y3U8)
[31] = target: Serine/threonine-protein kinase PAK 4 (Homo sapiens) (UniProt O96013)
Homo sapiens [32] = species on record: Homo sapiens
[33] = target: Isoleucine--tRNA ligase, cytoplasmic (Homo sapiens) (UniProt P41252)
[34] = target: Cilia- and flagella-associated protein 410 (Homo sapiens) (UniProt O43822)
[35] = target: Growth hormone-inducible transmembrane protein (Homo sapiens) (UniProt Q9H3K2)
[36] = target: Mitogen-activated protein kinase kinase kinase kinase 5 (Homo sapiens) (UniProt Q9Y4K4)
[37] = target: Membrane-associated progesterone receptor component 1 (Homo sapiens) (UniProt O00264)
[38] = target: Atypical kinase COQ8A, mitochondrial (Homo sapiens) (UniProt Q8NI60)
Homo sapiens [39] = species on record: Homo sapiens; remark: listed apart in the source
[40] = target: TGF-beta receptor type-1 (Homo sapiens) (UniProt P36897)
[41] = target: Drebrin-like protein (Homo sapiens) (UniProt Q9UJU6)
[42] = target: Serine/arginine-rich splicing factor 3 (Homo sapiens) (UniProt P84103)
[43] = target: Squalene synthase (Homo sapiens) (UniProt P37268)
[44] = target: Small ribosomal subunit protein eS12 (Homo sapiens) (UniProt P25398)
Further: assay method not described here.

Sequence of Serine/threonine-protein kinase PAK 4 (Homo sapiens) (O96013 whole entry, looked up): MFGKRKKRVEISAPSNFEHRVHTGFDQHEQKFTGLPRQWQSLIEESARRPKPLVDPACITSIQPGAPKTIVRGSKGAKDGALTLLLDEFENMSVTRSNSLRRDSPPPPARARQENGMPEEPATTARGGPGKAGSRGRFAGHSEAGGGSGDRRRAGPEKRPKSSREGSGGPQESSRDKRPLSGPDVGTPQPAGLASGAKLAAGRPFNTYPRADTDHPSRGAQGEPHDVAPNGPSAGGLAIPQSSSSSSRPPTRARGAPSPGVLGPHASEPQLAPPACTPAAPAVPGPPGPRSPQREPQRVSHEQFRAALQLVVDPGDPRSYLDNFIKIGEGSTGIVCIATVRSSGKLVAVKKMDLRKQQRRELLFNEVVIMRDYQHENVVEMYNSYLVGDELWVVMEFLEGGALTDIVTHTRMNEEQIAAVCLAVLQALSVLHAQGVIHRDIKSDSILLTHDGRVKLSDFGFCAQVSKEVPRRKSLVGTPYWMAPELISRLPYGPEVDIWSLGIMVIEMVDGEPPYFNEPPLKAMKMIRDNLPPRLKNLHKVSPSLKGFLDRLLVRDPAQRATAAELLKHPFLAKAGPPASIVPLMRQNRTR
Sequence of Fructosamine-3-kinase (Homo sapiens) (Q9H479 whole entry): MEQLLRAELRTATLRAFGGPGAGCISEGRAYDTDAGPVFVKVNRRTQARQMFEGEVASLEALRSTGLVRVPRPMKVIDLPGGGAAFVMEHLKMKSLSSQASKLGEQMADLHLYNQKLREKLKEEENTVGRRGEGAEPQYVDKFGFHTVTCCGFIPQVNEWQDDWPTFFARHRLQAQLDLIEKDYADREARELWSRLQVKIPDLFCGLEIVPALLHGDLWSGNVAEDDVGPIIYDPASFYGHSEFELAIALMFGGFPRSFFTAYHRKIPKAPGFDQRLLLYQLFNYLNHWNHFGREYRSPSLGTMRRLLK
Sequence of Asparagine--tRNA ligase, cytoplasmic (Homo sapiens) (O43776 whole entry): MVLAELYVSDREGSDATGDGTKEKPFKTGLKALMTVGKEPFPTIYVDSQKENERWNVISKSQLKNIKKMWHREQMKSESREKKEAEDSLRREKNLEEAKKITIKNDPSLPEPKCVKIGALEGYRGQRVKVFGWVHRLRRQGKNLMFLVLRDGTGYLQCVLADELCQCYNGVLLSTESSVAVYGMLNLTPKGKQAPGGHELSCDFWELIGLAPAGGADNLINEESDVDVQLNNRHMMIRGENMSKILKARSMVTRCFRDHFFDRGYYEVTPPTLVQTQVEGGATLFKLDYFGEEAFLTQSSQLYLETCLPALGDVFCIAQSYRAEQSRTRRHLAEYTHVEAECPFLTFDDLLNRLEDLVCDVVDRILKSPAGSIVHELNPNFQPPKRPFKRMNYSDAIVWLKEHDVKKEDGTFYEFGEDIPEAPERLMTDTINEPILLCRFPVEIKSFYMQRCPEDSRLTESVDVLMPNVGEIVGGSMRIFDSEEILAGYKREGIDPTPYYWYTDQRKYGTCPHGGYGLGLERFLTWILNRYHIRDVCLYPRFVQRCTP
Sequence of Lysine--tRNA ligase (Homo sapiens) (Q15046 2-597 limits assumed): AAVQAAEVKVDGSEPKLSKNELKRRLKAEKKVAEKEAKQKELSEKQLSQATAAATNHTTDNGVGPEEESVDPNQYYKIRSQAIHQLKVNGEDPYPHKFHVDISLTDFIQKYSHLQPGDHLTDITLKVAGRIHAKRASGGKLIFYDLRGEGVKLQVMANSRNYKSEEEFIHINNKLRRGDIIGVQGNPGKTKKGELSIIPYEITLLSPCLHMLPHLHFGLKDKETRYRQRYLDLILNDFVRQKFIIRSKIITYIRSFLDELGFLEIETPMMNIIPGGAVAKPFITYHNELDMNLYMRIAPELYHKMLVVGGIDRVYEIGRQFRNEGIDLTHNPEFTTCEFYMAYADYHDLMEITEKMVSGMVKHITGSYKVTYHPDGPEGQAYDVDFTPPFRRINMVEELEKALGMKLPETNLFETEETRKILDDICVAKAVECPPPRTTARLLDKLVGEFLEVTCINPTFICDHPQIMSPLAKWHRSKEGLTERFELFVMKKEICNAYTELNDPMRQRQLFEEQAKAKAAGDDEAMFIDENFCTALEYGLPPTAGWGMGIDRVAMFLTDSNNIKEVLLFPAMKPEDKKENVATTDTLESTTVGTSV
Sequence of DNA replication licensing factor MCM2 (Homo sapiens) (P49736 whole entry): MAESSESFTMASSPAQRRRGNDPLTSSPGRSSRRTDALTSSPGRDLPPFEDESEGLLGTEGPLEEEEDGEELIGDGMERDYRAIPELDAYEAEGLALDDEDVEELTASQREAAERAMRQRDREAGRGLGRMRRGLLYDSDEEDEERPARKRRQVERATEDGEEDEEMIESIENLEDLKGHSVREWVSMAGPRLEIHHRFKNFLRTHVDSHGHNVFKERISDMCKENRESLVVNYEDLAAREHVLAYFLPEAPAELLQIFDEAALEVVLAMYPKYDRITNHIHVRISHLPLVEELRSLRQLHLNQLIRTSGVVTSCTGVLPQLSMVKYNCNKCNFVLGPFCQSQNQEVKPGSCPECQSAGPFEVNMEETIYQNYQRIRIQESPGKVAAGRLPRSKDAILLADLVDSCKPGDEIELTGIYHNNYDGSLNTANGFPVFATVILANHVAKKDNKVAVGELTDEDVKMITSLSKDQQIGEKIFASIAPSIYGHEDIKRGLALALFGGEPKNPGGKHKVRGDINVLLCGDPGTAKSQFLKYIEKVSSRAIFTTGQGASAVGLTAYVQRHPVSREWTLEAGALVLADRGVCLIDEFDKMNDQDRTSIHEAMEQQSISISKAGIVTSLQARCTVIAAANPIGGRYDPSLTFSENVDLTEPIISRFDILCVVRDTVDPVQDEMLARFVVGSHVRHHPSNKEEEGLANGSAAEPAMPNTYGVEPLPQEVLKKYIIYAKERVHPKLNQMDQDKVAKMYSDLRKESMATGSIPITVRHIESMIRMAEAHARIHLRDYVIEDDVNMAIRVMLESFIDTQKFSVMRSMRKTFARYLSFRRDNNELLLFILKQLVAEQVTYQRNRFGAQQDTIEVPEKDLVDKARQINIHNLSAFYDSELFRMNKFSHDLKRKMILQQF
Sequence of Membrane-associated progesterone receptor component 1 (Homo sapiens) (O00264 whole entry): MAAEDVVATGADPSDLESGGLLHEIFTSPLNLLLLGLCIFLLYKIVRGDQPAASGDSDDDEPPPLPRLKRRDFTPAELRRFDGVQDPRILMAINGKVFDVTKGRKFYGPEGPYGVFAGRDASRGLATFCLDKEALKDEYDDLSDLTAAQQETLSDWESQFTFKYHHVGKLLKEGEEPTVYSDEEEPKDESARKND
Sequence of Transportin-3 (Homo sapiens) (Q9Y5L0 whole entry): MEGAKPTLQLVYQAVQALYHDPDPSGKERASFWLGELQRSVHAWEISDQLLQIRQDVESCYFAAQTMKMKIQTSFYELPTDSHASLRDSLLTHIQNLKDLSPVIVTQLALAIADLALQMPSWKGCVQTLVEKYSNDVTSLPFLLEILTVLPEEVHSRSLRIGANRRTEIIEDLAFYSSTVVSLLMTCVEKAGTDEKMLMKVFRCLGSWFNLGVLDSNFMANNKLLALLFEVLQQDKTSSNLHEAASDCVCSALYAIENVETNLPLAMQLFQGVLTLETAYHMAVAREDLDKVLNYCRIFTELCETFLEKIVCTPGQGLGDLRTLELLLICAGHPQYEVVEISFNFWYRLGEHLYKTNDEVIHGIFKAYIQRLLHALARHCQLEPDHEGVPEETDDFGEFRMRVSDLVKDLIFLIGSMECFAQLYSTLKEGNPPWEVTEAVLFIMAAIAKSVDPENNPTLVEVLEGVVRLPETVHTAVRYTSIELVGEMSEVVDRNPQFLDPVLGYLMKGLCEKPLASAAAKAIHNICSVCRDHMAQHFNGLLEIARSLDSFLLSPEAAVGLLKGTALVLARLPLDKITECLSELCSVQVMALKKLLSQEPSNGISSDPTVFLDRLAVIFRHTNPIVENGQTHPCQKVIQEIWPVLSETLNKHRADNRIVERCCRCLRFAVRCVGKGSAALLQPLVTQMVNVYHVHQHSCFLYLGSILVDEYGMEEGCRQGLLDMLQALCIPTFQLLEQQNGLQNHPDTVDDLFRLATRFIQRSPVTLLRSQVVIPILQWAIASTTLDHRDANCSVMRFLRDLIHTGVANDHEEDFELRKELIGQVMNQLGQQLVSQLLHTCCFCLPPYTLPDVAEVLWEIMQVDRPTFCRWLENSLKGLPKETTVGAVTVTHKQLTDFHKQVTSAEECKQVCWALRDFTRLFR
Sequence of Staphylococcal nuclease domain-containing protein 1 (Homo sapiens) (Q7KZF4 whole entry, the tested form may be a part): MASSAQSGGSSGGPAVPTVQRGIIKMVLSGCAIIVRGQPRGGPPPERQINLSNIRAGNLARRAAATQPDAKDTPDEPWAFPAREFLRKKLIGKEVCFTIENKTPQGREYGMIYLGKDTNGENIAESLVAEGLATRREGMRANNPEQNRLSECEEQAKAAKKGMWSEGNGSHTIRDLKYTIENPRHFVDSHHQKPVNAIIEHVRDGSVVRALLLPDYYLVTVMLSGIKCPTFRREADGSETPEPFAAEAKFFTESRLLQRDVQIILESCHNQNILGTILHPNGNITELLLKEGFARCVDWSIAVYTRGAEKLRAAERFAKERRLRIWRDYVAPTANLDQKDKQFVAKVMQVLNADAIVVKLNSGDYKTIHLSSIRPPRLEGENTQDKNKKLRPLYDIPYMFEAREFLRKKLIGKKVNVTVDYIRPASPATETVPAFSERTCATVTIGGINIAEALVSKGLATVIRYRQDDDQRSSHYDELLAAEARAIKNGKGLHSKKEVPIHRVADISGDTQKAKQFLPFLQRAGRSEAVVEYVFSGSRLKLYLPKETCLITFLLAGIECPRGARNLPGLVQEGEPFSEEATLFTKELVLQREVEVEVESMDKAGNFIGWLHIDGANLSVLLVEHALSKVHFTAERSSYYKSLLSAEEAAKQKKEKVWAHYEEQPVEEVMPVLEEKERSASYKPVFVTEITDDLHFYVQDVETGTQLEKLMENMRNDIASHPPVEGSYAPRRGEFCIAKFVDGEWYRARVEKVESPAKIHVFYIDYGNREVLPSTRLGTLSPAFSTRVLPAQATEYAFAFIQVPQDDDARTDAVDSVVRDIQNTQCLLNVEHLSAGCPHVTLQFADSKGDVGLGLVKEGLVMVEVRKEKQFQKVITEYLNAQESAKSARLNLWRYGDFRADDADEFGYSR

## Cc1ccc(C(=O)Nc2cccc(C(F)(F)F)c2)cc1Nc1nc(-c2cccnc2)nc2nn(C)cc12
[1]
  ED50: 0.000624 µM
Fascin (Homo sapiens)
  ED50: 0.348 µM
[2]
  ED50: 0.083 µM
[3]
  ED50: 0.002 µM
[4]
  ED50: 0.000949 µM
[5]
  ED50: 1.76 µM
[6]
  ED50: 0.0024 µM
Plectin (Homo sapiens)
  ED50: 0.011 µM
[7]
  ED50: 0.00513 µM
[8]
  ED50: 1.72 µM
[9]
  ED50: 0.669 µM
[10]
  ED50: 0.0591 µM
[11]
  ED50: 0.193 µM
[12]
  ED50: 5.32 µM
[13]
  ED50: 1.77 µM
[14]
  ED50: 10.4 µM
[15]
  ED50: 3.43 µM
[16]
  ED50: 0.0538 µM
[17]
  ED50: 0.432 µM
[18]
  ED50: 0.265 µM
[19]
  ED50: 3.6 µM
[20]
  ED50: 5.57 µM
Malectin (Homo sapiens)
  ED50: 7.05 µM
[21]
  ED50: 2500 µM
[22]
  ED50: 75 µM
[23]
  ED50: 0.0363 µM
[24]
  ED50: 7.54 µM
[25]
  ED50: 0.291 µM
[26]
  ED50: 1.15 µM
[27]
  ED50: 0.291 µM
[28]
  ED50: 0.57 µM
[29]
  ED50: 12.7 µM
[30]
  ED50: 0.0103 µM
[31]
  ED50: 25.1 µM
Homo sapiens [32]
  ED50: 7.5 µM
[33]
  ED50: 4.57 µM
[34]
  ED50: 0.574 µM
[35]
  ED50: 0.0192 µM
[36]
  ED50: 13.4 µM
[37]
  ED50: 23.2 µM
[38]
  ED50: 8.58 µM
Homo sapiens [39]
  ED50: 39.2 µM
[40]
  ED50: 0.029 µM
[41]
  ED50: 0.0059 µM
[42]
  ED50: 0.0813 µM
[43]
  ED50: 2.93 µM
[44]
  ED50: 0.254 µM

## Cc1ccc(C(=O)Nc2cccc(C(F)(F)F)c2)cc1Nc1nc(-c2cccnc2)nc2c1cnn2C
[1]
  ED50: 0.00873 µM
Fascin (Homo sapiens)
  ED50: 0.0186 µM
[2]
  ED50: 0.000546 µM
[3]
  ED50: 4.77 µM
[4]
  ED50: 0.065 µM
[5]
  ED50: 21.8 µM
[6]
  ED50: 3.39 µM
Plectin (Homo sapiens)
  ED50: 11.9 µM
[7]
  ED50: 65.5 µM
[8]
  ED50: 0.0378 µM
[9]
  ED50: 19 µM
[10]
  ED50: 0.177 µM
[11]
  ED50: 0.00101 µM
[12]
  ED50: 0.00641 µM
[13]
  ED50: 0.758 µM
[14]
  ED50: 112 µM
[15]
  ED50: 3.6 µM
[16]
  ED50: 1.74 µM
[17]
  ED50: 0.0201 µM
[18]
  ED50: 4.63 µM
[19]
  ED50: 0.00223 µM
[20]
  ED50: 0.0284 µM
Malectin (Homo sapiens)
  ED50: 95.1 µM
[21]
  ED50: 0.0457 µM
[22]
  ED50: 101 µM
[23]
  ED50: 0.0527 µM
[24]
  ED50: 0.127 µM
[25]
  ED50: 7.31 µM
[26]
  ED50: 15.6 µM
[27]
  ED50: 0.0171 µM
[28]
  ED50: 23.6 µM
[29]
  ED50: 23.1 µM
[30]
  ED50: 10.5 µM
[31]
  ED50: 9.68 µM
Homo sapiens [32]
  ED50: 3.03 µM
[33]
  ED50: 0.0944 µM
[34]
  ED50: 46.8 µM
[35]
  ED50: 0.00891 µM
[36]
  ED50: 5.17 µM
[37]
  ED50: 0.651 µM
[38]
  ED50: 0.39 µM
Homo sapiens [39]
  ED50: 7.04 µM
[40]
  ED50: 0.000384 µM
[41]
  ED50: 0.133 µM
[42]
  ED50: 1.06 µM
[43]
  ED50: 3.81 µM
[44]
  ED50: 0.171 µM
